Patent publication US11000033B2, “Ketone or oxime compound, and herbicide” (NISSAN CHEMICAL CORPORATION, priority 2014, dated 2021)

Key:
Assay type in all cases: in vivo
beet = assay: Test Example 4: effect on crop by soil treatment (symbol f); conditions: for f (beet) effect on crop grade: application herbicide amount 320 g/ha; for f: beet, effect grade on crop: 320 g/ha
Outline: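 Diluvial soil (sterilized) in boxes; seeds placed spot-wise alongside weed species; ~1.5 cm covering soil. Greenhouse, 25–30° C.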

[1] = system: directly sowed rice plant; assay: Test Example 3: effect on crop by foliage application, Wagner pot (symbol b); conditions: application herbicide amount 320 g/ha
Outline: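 Steps: fill a 1/10000-are Wagner pot with alluvial soil; add water and mix to submerge at 0.1–0.5 cm depth; sow rice plus Echinochloa crus-galli var. crus-galli, Leptochloa chinensis and Cyperus difformis; grow in a 25–30 °C greenhouse.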

Digitaria ciliaris = assay: Test Example 4: herbicidal effect by soil treatment (symbol F); conditions: for F (Digitaria ciliaris) herbicidal effect grade: application herbicide amount 320 g/ha; for F: Digitaria ciliaris, herbicidal effect grade: 320 g/ha
Outline: (§1)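 Seeds were sown in sterilized diluvial soil, covered with about 1.5 cm of soil, and the soil surface was sprayed with a water-diluted emulsion of the compound at a predetermined rate. Plants grew in a greenhouse at 25° C. to 30° C.; effects were scored visually 3 weeks after application.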

Avena fatua [2] = assay: Test Example 5: herbicidal effect by foliage application, plastic box (symbol I); conditions: 320 g/ha, 3 weeks after application
Outline: (§2)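 Emulsion formulation, diluted with water to the intended rate, was applied uniformly to leaves by small sprayer. Recipients were 14-day greenhouse-grown seedlings (25° C. to 30° C.). Assessment followed at 3 weeks.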

corn = assay: Test Example 4: effect on crop by soil treatment (symbol c); conditions: for c (corn) effect on crop grade: application herbicide amount 320 g/ha; for c: corn, effect grade on crop: 320 g/ha
Outline: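 Crop seed is sown in spots together with several weed species in a box of sterilized diluvial soil. It is covered by about 1.5 cm of soil and kept in a greenhouse held between 25° C. and 30° C.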

Lolium multiflorum Lam. = assay: Test Example 5: herbicidal effect by foliage application, plastic box (symbol K); conditions: 320 g/ha, 3 weeks after application
Outline: as §2

wheat = assay: Test Example 5: effect on crop by foliage application, plastic box (symbol e); conditions: 320 g/ha, 3 weeks after application
Outline: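 Soil: sterilized diluvial. Container: plastic box, 21 × 13 cm, 7 cm deep. Sowing: spot-like, ~1.5 cm cover. Growth: greenhouse, 25° C. to 30° C.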

Stellaria media = assay: Test Example 4: herbicidal effect by soil treatment (symbol P); conditions: for P (Stellaria media) herbicidal effect grade: application herbicide amount 320 g/ha; for P: Stellaria media, herbicidal effect grade: 320 g/ha
Outline: as §1

Leptochloa chinensis = assay: Test Example 3: herbicidal effect by foliage application, Wagner pot (symbol D); conditions: application herbicide amount 320 g/ha
Outline: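 Herbicidal activity was rated three weeks after a foliar spray of diluted emulsion concentrate, applied at a predetermined dose to plants grown for 14 days from seed in waterlogged alluvial soil within a 25–30 °C greenhouse.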

Scirpus juncoides = assay: Test Example 2: herbicidal activity, application during weed generation in submerged conditions (symbol B); conditions: Table 23; application herbicide amount 320 g/ha; grade 0-5 by criteria of Test Example 1
Outline: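 Visual herbicidal ratings, taken three weeks after dosing, reflect post-emergence water-surface application to seedlings at one to two leaves. Conditions: co-sown weeds in alluvial soil flooded to 4 cm, greenhouse held at 25° C. to 30° C.; compound given as water-diluted emulsion at a fixed herbicide amount.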

Abutilon theophrasti [3] = assay: Test Example 4: herbicidal effect by soil treatment (symbol M); conditions: for M (Abutilon theophrasti) herbicidal effect grade: application herbicide amount 320 g/ha; for M: Abutilon theophrasti, herbicidal effect grade: 320 g/ha
Outline: as §1

Abutilon theophrasti [4] = assay: Test Example 5: herbicidal effect by foliage application, plastic box (symbol M); conditions: 320 g/ha, 3 weeks after application
Outline: as §2

Avena fatua [5] = assay: Test Example 4: herbicidal effect by soil treatment (symbol I); conditions: for I (Avena fatua) herbicidal effect grade: application herbicide amount 320 g/ha; for I: Avena fatua, herbicidal effect grade: 320 g/ha
Outline: as §1

Row | Structure (SMILES) | f (beet) effect on crop grade (beet) | effect on crop b (directly sowed rice plant), grade 0-5 [1] | F (Digitaria ciliaris) herbicidal effect grade (Digitaria ciliaris) | I: Avena fatua, herbicidal effect grade (Avena fatua [2]) | c (corn) effect on crop grade (corn) | K: Lolium multiflorum Lam., herbicidal effect grade (Lolium multiflorum Lam.) | e: wheat, effect on crop grade (wheat) | P (Stellaria media) herbicidal effect grade (Stellaria media) | herbicidal effect on D (Leptochloa chinensis), grade 0-5 (Leptochloa chinensis) | Herbicidal effect grade, B: Scirpus juncoides (Scirpus juncoides) | f: beet, effect grade on crop (beet) | F: Digitaria ciliaris, herbicidal effect grade (Digitaria ciliaris) | I: Avena fatua, herbicidal effect (criteria 0-5) (Avena fatua [2]) | c: corn, effect grade on crop (corn) | K: Lolium multiflorum Lam., herbicidal effect (criteria 0-5) (Lolium multiflorum Lam.) | e: wheat, effect on crop (criteria 0-5) (wheat) | P: Stellaria media, herbicidal effect grade (Stellaria media) | M: Abutilon theophrasti, herbicidal effect grade (Abutilon theophrasti [3]) | M: Abutilon theophrasti, herbicidal effect (criteria 0-5) (Abutilon theophrasti [4]) | I: Avena fatua, herbicidal effect grade (Avena fatua [5]) | also measured
1 | CON=C(CC1CC(O)=C(c2c(C)cc(C)cc2C)C1=O)c1ccccn1 (centres unmarked) [1-045] | 0 (Herbicidal ratio of 5% or lower (almost no effect)) | 3 (Herbicidal ratio of 40% or higher and lower than 70%) | 0 (Herbicidal ratio of 5% or lower (almost no effect)) | 5 (Herbicidal ratio of 90% or more (almost completely withered)) | 0 (Herbicidal ratio of 5% or lower (almost no effect)) | 5 (Herbicidal ratio of 90% or more (almost completely withered)) | 0 (Herbicidal ratio of 5% or lower (almost no effect)) | 0 (Herbicidal ratio of 5% or lower (almost no effect)) | 4 (Herbicidal ratio of 70% or higher and lower than 90%) | 0 (Herbicidal ratio of 5% or lower (almost no effect)) | – | – | – | – | – | – | – | – | – | – | M (Abutilon theophrasti) herbicidal effect grade (Abutilon theophrasti [3]): 0 (Herbicidal ratio of 5% or lower (almost no effect)); M: Abutilon theophrasti, herbicidal effect grade (Abutilon theophrasti [4]): 0 (Herbicidal ratio of 5% or lower (almost no effect)); I (Avena fatua) herbicidal effect grade (Avena fatua [5]): 0 (Herbicidal ratio of 5% or lower (almost no effect))
2 | CON=C(C)CC1CC(OC(=O)COc2ccc(C=O)cc2)=C(c2c(C)cc(C)cc2C)C1=O (centres unmarked) [1-079] | – | 5 (Herbicidal ratio of 90% or more (almost completely withered)) | – | – | – | – | – | – | 5 (Herbicidal ratio of 90% or more (almost completely withered)) | 4 (Herbicidal ratio of 70% or higher and lower than 90%) | 0 (Herbicidal ratio of 5% or lower (almost no effect)) | 5 (Herbicidal ratio of 90% or more (almost completely withered)) | 5 (Herbicidal ratio of 90% or more (almost completely withered)) | 4 (Herbicidal ratio of 70% or higher and lower than 90%) | 5 (Herbicidal ratio of 90% or more (almost completely withered)) | 4 (Herbicidal ratio of 70% or higher and lower than 90%) | 0 (Herbicidal ratio of 5% or lower (almost no effect)) | 5 (Herbicidal ratio of 90% or more (almost completely withered)) | 4 (Herbicidal ratio of 70% or higher and lower than 90%) | 3 (Herbicidal ratio of 40% or higher and lower than 70%) | –
3 | CON=C(C)CC1CC(OC(=O)COCc2ccccc2)=C(c2c(C)cc(C)cc2C)C1=O (centres unmarked) [1-094] | – | 5 (Herbicidal ratio of 90% or more (almost completely withered)) | – | – | – | – | – | – | 5 (Herbicidal ratio of 90% or more (almost completely withered)) | 5 (Herbicidal ratio of 90% or more (almost completely withered)) | 0 (Herbicidal ratio of 5% or lower (almost no effect)) | 5 (Herbicidal ratio of 90% or more (almost completely withered)) | 5 (Herbicidal ratio of 90% or more (almost completely withered)) | 4 (Herbicidal ratio of 70% or higher and lower than 90%) | 5 (Herbicidal ratio of 90% or more (almost completely withered)) | 5 (Herbicidal ratio of 90% or more (almost completely withered)) | 0 (Herbicidal ratio of 5% or lower (almost no effect)) | 2 (Herbicidal ratio of 20% or higher and lower than 40%) | 4 (Herbicidal ratio of 70% or higher and lower than 90%) | 3 (Herbicidal ratio of 40% or higher and lower than 70%) | –
4 | CC(CC1CC(O)=C(c2c(C)cc(C)cc2C)C1=O)=NO (centres unmarked) [1-058] | 0 (Herbicidal ratio of 5% or lower (almost no effect)) | 5 (Herbicidal ratio of 90% or more (almost completely withered)) | 5 (Herbicidal ratio of 90% or more (almost completely withered)) | 5 (Herbicidal ratio of 90% or more (almost completely withered)) | 4 (Herbicidal ratio of 70% or higher and lower than 90%) | 5 (Herbicidal ratio of 90% or more (almost completely withered)) | 5 (Herbicidal ratio of 90% or more (almost completely withered)) | 0 (Herbicidal ratio of 5% or lower (almost no effect)) | 5 (Herbicidal ratio of 90% or more (almost completely withered)) | 0 (Herbicidal ratio of 5% or lower (almost no effect)) | – | – | – | – | – | – | – | – | – | – | M (Abutilon theophrasti) herbicidal effect grade (Abutilon theophrasti [3]): 4 (Herbicidal ratio of 70% or higher and lower than 90%); M: Abutilon theophrasti, herbicidal effect grade (Abutilon theophrasti [4]): 4 (Herbicidal ratio of 70% or higher and lower than 90%); I (Avena fatua) herbicidal effect grade (Avena fatua [5]): 1 (Herbicidal ratio of 5% or higher and lower than 20%)
5 | CON=C(C)CC1CC(OC(=O)COc2ccc(I)cc2)=C(c2c(C)cc(C)cc2C)C1=O (centres unmarked) [1-082] | – | 5 (Herbicidal ratio of 90% or more (almost completely withered)) | – | – | – | – | – | – | 5 (Herbicidal ratio of 90% or more (almost completely withered)) | 5 (Herbicidal ratio of 90% or more (almost completely withered)) | 0 (Herbicidal ratio of 5% or lower (almost no effect)) | 5 (Herbicidal ratio of 90% or more (almost completely withered)) | 5 (Herbicidal ratio of 90% or more (almost completely withered)) | 4 (Herbicidal ratio of 70% or higher and lower than 90%) | 5 (Herbicidal ratio of 90% or more (almost completely withered)) | 5 (Herbicidal ratio of 90% or more (almost completely withered)) | 0 (Herbicidal ratio of 5% or lower (almost no effect)) | 5 (Herbicidal ratio of 90% or more (almost completely withered)) | 4 (Herbicidal ratio of 70% or higher and lower than 90%) | 3 (Herbicidal ratio of 40% or higher and lower than 70%) | –
